{"source": "patent US10786531B2", "about": "“Mineral salt-sulfonic acid compositions and methods of use” (BMG PHARMA SPA, priority 2009, dated 2020)", "origin": "cited, not measured here", "key": {"[1]": {"settings": "solutions of 0.2-1%"}}, "note": "Where two headings read alike, the source gives them in different places.", "data": [{"compound": "CC(=O)[O-].CC(=O)[O-].[Zn+2]", "note": "[zinc acetate]", "values": [{"measurement": "dermal irritancy", "setting": "dermal abrasion; 20% aqueous", "result": "slightly less irritant"}]}, {"compound": "[Cl-].[Cl-].[Zn+2]", "note": "[zinc chloride]", "values": [{"measurement": "dermal irritancy", "setting": "dermal abrasion; 1% aqueous", "result": "severe irritant"}]}, {"compound": "[O]=[Zn]", "note": "[zinc oxide]", "values": [{"measurement": "dermal irritancy", "setting": "dermal abrasion; 20% suspension", "result": "not overtly irritant"}]}, {"compound": "O=S(=O)([O-])[O-].[Zn+2]", "note": "[zinc sulfate]", "values": [{"measurement": "irritation when applied circumorally", "setting": "[1]", "result": "severe irritation"}, {"measurement": "dermal irritancy", "setting": "dermal abrasion; 1% aqueous", "result": "not overtly irritant"}]}, {"compound": "zinc pyrithione", "values": [{"measurement": "dermal irritancy", "setting": "dermal abrasion; 20% suspension", "result": "not overtly irritant"}]}]}
